Numbered stars: 1 amine (or outer) side, 2 acyl side, 3 side chain; on linkers, the order of the positions; unused ones are H or OH. Bridge positions count the residues as written; N and C are the ends. Square brackets hold non-standard residues; d marks the D form. Peptide text beside a SMILES is read from it. * marks the point of attachment. X47 = O=C(O)CN1CCN(CC(=O)O)CCN(CC(=O)NCCCCCNC(=O)CCC(=O)NCCCOCCOCCOCCCN*)CCN(CC(=O)O)CC1; NH(CH2)3NHDOTA = O=C(O)CN1CCN(CC(=O)O)CCN(CC(=O)NCCCN*)CCN(CC(=O)O)CC1; Phe(2-CF3) = N[C@@H](Cc1ccccc1C(F)(F)F)C(=O)O; mXylylene = c1cc(C[*:1])cc(C[*:2])c1; X44 = O=C(CC1CCN([*:1])CC1)[*:2]; 4Amb = NCc1ccc(C(=O)O)cc1; Octanoyl = CCCCCCCC(=O)*; Hexanoyl = CCCCCC(=O)*; CO = O=C([*:1])[*:2]; NHPentyl = CCCCCN*; βAla = NCCC(=O)O
Columns and labels:
[1] = target: T1, FAP-expressing human WI-38 fibroblasts (Homo sapiens, UniProt Q12884); assay: Competitive FACS binding assay; settings: pIC50 Category (FACS), competition with 3 nM Cy5-labeled compound, WI-38 fibroblasts, 4° C., 1 hour
T1 construct: FAP-expressing human WI-38 fibroblasts (ECACC) were cultured in EMEM; host or cells: WI-38 human fibroblasts
T1 sequence (Q12884 1-760): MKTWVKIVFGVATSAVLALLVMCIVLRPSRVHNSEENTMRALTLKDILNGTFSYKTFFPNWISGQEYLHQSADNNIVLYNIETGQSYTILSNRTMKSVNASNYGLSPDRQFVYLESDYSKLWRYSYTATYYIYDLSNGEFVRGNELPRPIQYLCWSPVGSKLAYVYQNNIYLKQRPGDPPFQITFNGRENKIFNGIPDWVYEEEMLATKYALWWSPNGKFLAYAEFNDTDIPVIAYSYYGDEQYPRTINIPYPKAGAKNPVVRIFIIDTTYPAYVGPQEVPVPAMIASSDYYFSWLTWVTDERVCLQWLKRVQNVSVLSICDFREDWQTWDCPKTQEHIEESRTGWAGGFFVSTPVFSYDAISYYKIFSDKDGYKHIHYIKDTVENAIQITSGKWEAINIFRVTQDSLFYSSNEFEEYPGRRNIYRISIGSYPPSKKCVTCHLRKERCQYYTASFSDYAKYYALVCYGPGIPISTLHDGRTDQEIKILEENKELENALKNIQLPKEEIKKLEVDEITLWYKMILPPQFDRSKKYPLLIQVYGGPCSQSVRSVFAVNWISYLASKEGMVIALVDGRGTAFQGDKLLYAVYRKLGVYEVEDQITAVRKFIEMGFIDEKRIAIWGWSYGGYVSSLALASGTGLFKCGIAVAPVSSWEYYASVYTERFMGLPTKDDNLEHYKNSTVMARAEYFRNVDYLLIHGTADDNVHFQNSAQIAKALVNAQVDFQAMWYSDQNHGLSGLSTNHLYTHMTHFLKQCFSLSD
Protocol: Cells were analyzed in an Attune NxT flow cytometer. […]

[2] = target: T2, Human recombinant FAP (Homo sapiens, UniProt Q12884); assay: FRET-based FAP protease activity assay; type: biochemical; set-up: purchased R&D systems 3715-SE; settings: pIC50 Category (Activity), recombinant human FAP, FRET substrate, 37° C.
T2 sequence (Q12884 1-760): T1 sequence (Q12884 1-760)

| SMILES | IC50 [1] | IC50 [2] |
| --- | --- | --- |
| CCCCCC(=O)N[C@H]1CSCc2cccc(c2)CSC[C@@H](C(=O)N[C@@H](CC(=O)O)C(=O)N2CCC(CC(=O)N[C@@H](CCCNC(=N)N)C(N)=O)CC2)NC(=O)[C@H](Cc2ccccc2)NC(=O)[C@H](CCC(=O)O)NC(=O)[C@H]([C@@H](C)O)NC(=O)[C@@H]2CCCN2C(=O)[C@@H]2CCCN2C1=O [3BP-3302, Hex-[Cys(3MeBn)-Pro-Pro-Thr-Glu-Phe-Cys]-Asp-Cmp-Arg-NH2] (Hexanoyl-CPPTEFCD[X44]R-NH2; linker 1-7 via mXylylene) | < 10 nM | < 10 nM |
| CCCCCC(=O)N[C@H]1CSCc2cccc(c2)CSC[C@@H](C(=O)NCc2ccc(C(=O)N[C@@H](CCCNC(=N)N)C(N)=O)cc2)NC(=O)[C@H](Cc2ccccc2)NC(=O)[C@H](CCC(=O)O)NC(=O)[C@H]([C@@H](C)O)NC(=O)[C@@H]2CCCN2C(=O)[C@@H]2CCCN2C1=O [3BP-3303, Hex-[Cys(3MeBn)-Pro-Pro-Thr-Glu-Phe-Cys]-Pamb-Arg-NH2] (Hexanoyl-CPPTEFC[4Amb]R-NH2; linker 1-7 via mXylylene) | 10 to 79.4 nM | < 10 nM |
| CCCCCC(=O)N[C@H]1CSCc2cccc(c2)CSC[C@@H](C(N)=O)NC(=O)[C@H](Cc2ccccc2)NC(=O)[C@H](CCC(=O)O)NC(=O)[C@H]([C@@H](C)O)NC(=O)[C@@H]2CCCN2C(=O)CNC1=O [3BP-3345, Hex-[Cys(3MeBn)-Gly-Pro-Thr-Glu-Phe-Cys]-NH2] (Hexanoyl-CGPTEFC-NH2; linker 1-7 via mXylylene) | 100 to 794 nM | 10 to 79.4 nM |
| CCCCCC(=O)N[C@H]1CSCc2cccc(c2)CSC[C@@H](C(N)=O)NC(=O)[C@H](Cc2ccccc2)NC(=O)[C@H](CCC(=O)O)NC(=O)[C@H]([C@@H](C)O)NC(=O)[C@@H]2CCCN2C(=O)[C@H](C)NC1=O [3BP-3346, Hex-[Cys(3MeBn)-Ala-Pro-Thr-Glu-Phe-Cys]-NH2] (Hexanoyl-CAPTEFC-NH2; linker 1-7 via mXylylene) | > 1000 nM | 100 to 794 nM |
| CCCCCC(=O)N[C@H]1CSCc2cccc(c2)CSC[C@@H](C(N)=O)NC(=O)[C@H](Cc2ccccc2)NC(=O)[C@H](C)NC(=O)[C@H]([C@@H](C)O)NC(=O)[C@@H]2CCCN2C(=O)[C@@H]2CCCN2C1=O [3BP-3348, Hex-[Cys(3MeBn)-Pro-Pro-Thr-Ala-Phe-Cys]-NH2] (Hexanoyl-CPPTAFC-NH2; linker 1-7 via mXylylene) | > 1000 nM | > 1000 nM |
| CCCCCC(=O)N[C@H]1CSCc2cccc(c2)CSC[C@@H](C(N)=O)NC(=O)[C@H](C)NC(=O)[C@H](CCC(=O)O)NC(=O)[C@H]([C@@H](C)O)NC(=O)[C@@H]2CCCN2C(=O)[C@@H]2CCCN2C1=O [3BP-3350, Hex-[Cys(3MeBn)-Pro-Pro-Thr-Glu-Ala-Cys]-NH2] (Hexanoyl-CPPTEAC-NH2; linker 1-7 via mXylylene) | > 1000 nM | 100 to 794 nM |
| CCCCCC(=O)N[C@H]1CSCc2cccc(c2)CSC[C@@H](C(N)=O)NC(=O)[C@H](Cc2ccccc2)NC(=O)[C@H](CCC(=O)O)NC(=O)[C@H](C)NC(=O)[C@@H]2CCCN2C(=O)[C@@H]2CCCN2C1=O [3BP-3354, Hex-[Cys(3MeBn)-Pro-Pro-Ala-Glu-Phe-Cys]-NH2] (Hexanoyl-CPPAEFC-NH2; linker 1-7 via mXylylene) | > 1000 nM | > 1000 nM |
| CCCCCC(=O)N[C@H]1CSCc2cccc(c2)CSC[C@@H](C(=O)O)NC(=O)[C@H](Cc2ccccc2)NC(=O)[C@H](CCC(=O)O)NC(=O)[C@H]([C@@H](C)O)NC(=O)[C@@H]2CCCN2C(=O)[C@@H]2CCCN2C1=O [3BP-3370, Hex-[Cys(3MeBn)-Pro-Pro-Thr-Glu-Phe-Cys]-OH] (Hexanoyl-CPPTEFC-OH; linker 1-7 via mXylylene) | 10 to 79.4 nM | 10 to 79.4 nM |
| CCCCCC(=O)N[C@H]1CSCc2cccc(c2)CSC[C@@H](C(=O)NCCC(=O)O)NC(=O)[C@H](Cc2ccccc2)NC(=O)[C@H](CCC(=O)O)NC(=O)[C@H]([C@@H](C)O)NC(=O)[C@@H]2CCCN2C(=O)[C@@H]2CCCN2C1=O [3BP-3371, Hex-[Cys(3MeBn)-Pro-Pro-Thr-Glu-Phe-Cys]-Bal-OH] (Hexanoyl-CPPTEFC[βAla]-OH; linker 1-7 via mXylylene) | < 10 nM | 10 to 79.4 nM |
| C[C@@H](O)[C@@H]1NC(=O)[C@@H]2CCCN2C(=O)[C@@H]2CCCN2C(=O)[C@@H](NC(=O)[C@H](CCCCNC(N)=O)NC(=O)CCC(=O)NCCCOCCOCCOCCCNC(=O)CN2CCN(CC(=O)O)CCN(CC(=O)O)CCN(CC(=O)O)CC2)CSCc2cccc(c2)CSC[C@@H](C(=O)NCCC(=O)O)NC(=O)[C@H](Cc2ccccc2)NC(=O)[C@H](CCC(N)=O)NC1=O [3BP-3399, DOTA-Ttds-Hci-[Cys(3MeBn)-Pro-Pro-Thr-Gln-Phe-Cys]-Bal-OH] | > 1000 nM | > 1000 nM |
| CCCCCC[C@H](NC(=O)CCC(=O)NCCCOCCOCCOCCCNC(=O)CN1CCN(CC(=O)O)CCN(CC(=O)O)CCN(CC(=O)O)CC1)C(=O)N[C@H]1CSCc2cccc(c2)CSC[C@@H](C(=O)NCCC(=O)O)NC(=O)[C@H](Cc2ccccc2)NC(=O)[C@H](CCC(N)=O)NC(=O)[C@H]([C@@H](C)O)NC(=O)[C@@H]2CCCN2C(=O)[C@@H]2CCCN2C1=O [3BP-3400, DOTA-Ttds-Hgl-[Cys(3MeBn)-Pro-Pro-Thr-Gln-Phe-Cys]-Bal-OH] | > 1000 nM | 10 to 79.4 nM |
| CCCCCC(=O)N[C@H]1CSCc2cccc(c2)CSC[C@@H](C(=O)N[C@@H](CC(=O)O)C(=O)NCCCOCCOCCOCCCNC(=O)CCC(=O)NCCCCCNC(=O)CN2CCN(CC(=O)O)CCN(CC(=O)O)CCN(CC(=O)O)CC2)NC(=O)[C@H](Cc2ccccc2)NC(=O)[C@H](CCC(N)=O)NC(=O)[C@H]([C@@H](C)O)NC(=O)[C@@H]2CCCN2C(=O)[C@@H]2CCCN2C1=O [3BP-3404, Hex-[Cys(3MeBn)-Pro-Pro-Thr-Gln-Phe-Cys]-Asp-Ttds-Ape(DOTA)] (Hexanoyl-CPPTQFCD-X47; linker 1-7 via mXylylene) | < 10 nM | < 10 nM |
| CCCCCC(=O)N[C@H]1CSCc2cccc(c2)CSC[C@@H](C(N)=O)NC(=O)[C@H](Cc2c[nH]c3ccccc23)NC(=O)[C@H](CCC(N)=O)NC(=O)[C@H]([C@@H](C)O)NC(=O)[C@@H]2CCCN2C(=O)[C@@H]2CCCN2C1=O [3BP-3408, Hex-[Cys(3MeBn)-Pro-Pro-Thr-Gln-Trp-Cys]-NH2] (Hexanoyl-CPPTQWC-NH2; linker 1-7 via mXylylene) | 10 to 79.4 nM | 10 to 79.4 nM |
| CCCCCC(=O)N[C@H]1CSCc2cccc(c2)CSC[C@@H](C(=O)N[C@@H](CC(=O)O)C(N)=O)NC(=O)[C@H](Cc2ccccc2C(F)(F)F)NC(=O)[C@H](CCC(N)=O)NC(=O)[C@H]([C@@H](C)O)NC(=O)[C@@H]2CCCN2C(=O)[C@@H]2CCCN2C1=O [3BP-3409, Hex-[Cys(3MeBn)-Pro-Pro-Thr-Gln-Otf-Cys]-NH2] (Hexanoyl-CPPTQ[Phe(2-CF3)]CD-NH2; linker 1-7 via mXylylene) | 10 to 79.4 nM | < 10 nM |
| CCCCCCCC(=O)N[C@H]1CSCc2cccc(c2)CSC[C@@H](C(=O)N[C@@H](CC(=O)O)C(N)=O)NC(=O)[C@H](Cc2ccccc2)NC(=O)[C@H](CCC(N)=O)NC(=O)[C@H]([C@@H](C)O)NC(=O)[C@@H]2CCCN2C(=O)[C@@H]2CCCN2C1=O [3BP-3417, Oct-[Cys(3MeBn)-Pro-Pro-Thr-Gln-Phe-Cys]-Asp-NH2] (Octanoyl-CPPTQFCD-NH2; linker 1-7 via mXylylene) | 10 to 79.4 nM | 10 to 79.4 nM |
| CCCCCNC(=O)N[C@H]1CSCc2cccc(c2)CSC[C@@H](C(=O)N[C@@H](CC(=O)O)C(N)=O)NC(=O)[C@H](Cc2ccccc2)NC(=O)[C@H](CCC(N)=O)NC(=O)[C@H]([C@@H](C)O)NC(=O)[C@@H]2CCCN2C(=O)[C@@H]2CCCN2C1=O [3BP-3425, PentylNH-urea-[Cys(3MeBn)-Pro-Pro-Thr-Gln-Phe-Cys]-Asp-NH2] ({NHPentyl-CO}-CPPTQFCD-NH2; linker 1-7 via mXylylene) | 10 to 79.4 nM | < 10 nM |
| CCCCCC(=O)N[C@H]1CSCc2cccc(c2)CSC[C@@H](C(=O)N[C@@H](CC(=O)O)C(N)=O)NC(=O)[C@H](Cc2ccccc2)NC(=O)[C@H](CCC(=O)NCCCNC(=O)CN2CCN(CC(=O)O)CCN(CC(=O)O)CCN(CC(=O)O)CC2)NC(=O)[C@H]([C@@H](C)O)NC(=O)[C@@H]2CCCN2C(=O)[C@@H]2CCCN2C1=O [3BP-3472, Hex-[Cys(3MeBn)-Pro-Pro-Thr-Glu(NH-Apr-DOTA')-Phe-Cys]-Asp-NH2] (Hexanoyl-CPPTE(NH(CH2)3NHDOTA)FCD-NH2; linker 1-7 via mXylylene) | > 1000 nM | > 1000 nM |
